According to US5962314A, “Calcium receptor-active molecules” (priority 1997, dated 1999):

Tests used:
calcium receptor = target: T1, calcium receptor (Homo sapiens, UniProt P41180); assay: Xenopus oocytes injected with human parathyroid cell mRNA; format: cell-based; settings: for effect on Cl- current: oocytes injected with human parathyroid mRNA; for effect in water-injected oocytes: neomycin B 10 mM
T1 sequence (P41180 20-1078): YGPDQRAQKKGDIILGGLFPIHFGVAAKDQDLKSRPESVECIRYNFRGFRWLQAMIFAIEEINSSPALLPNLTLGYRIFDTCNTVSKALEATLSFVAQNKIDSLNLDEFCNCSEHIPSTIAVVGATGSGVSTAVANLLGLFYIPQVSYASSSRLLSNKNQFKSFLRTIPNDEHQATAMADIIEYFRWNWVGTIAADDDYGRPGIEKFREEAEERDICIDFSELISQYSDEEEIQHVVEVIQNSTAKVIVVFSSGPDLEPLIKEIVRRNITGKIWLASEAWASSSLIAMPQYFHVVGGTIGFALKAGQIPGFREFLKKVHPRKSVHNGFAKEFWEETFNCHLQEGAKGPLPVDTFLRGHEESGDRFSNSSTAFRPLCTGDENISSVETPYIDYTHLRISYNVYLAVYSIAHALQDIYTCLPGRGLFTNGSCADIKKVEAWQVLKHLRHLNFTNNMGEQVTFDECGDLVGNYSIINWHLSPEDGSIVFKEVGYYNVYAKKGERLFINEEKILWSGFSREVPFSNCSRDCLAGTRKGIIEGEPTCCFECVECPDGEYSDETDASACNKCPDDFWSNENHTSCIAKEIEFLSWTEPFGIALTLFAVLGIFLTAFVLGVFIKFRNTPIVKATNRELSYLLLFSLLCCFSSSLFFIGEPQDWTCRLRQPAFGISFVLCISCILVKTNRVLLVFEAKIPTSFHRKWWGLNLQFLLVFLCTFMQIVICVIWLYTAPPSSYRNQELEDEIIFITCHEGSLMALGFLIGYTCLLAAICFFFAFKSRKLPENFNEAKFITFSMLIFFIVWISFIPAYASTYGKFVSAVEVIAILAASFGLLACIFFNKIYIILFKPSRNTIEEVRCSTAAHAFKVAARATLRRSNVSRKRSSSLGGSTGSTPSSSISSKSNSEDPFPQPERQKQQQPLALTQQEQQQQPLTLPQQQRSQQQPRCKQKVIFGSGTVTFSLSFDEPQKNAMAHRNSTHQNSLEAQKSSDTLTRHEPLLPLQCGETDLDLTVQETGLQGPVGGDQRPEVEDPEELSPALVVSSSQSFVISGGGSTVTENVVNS
Description: Oocytes were injected with poly(A)^+ -enriched mRNA from human parathyroid tissue (hyperplastic glands from a case of secondary HPT).
Following incubation, an oocyte was placed into a 100-μl plastic chamber and superfused with MBS at a flow rate of 0.5 ml/min using a peristaltic pump. Test molecules or inorganic polycations were added by rapidly moving the tubing into different buffers. Recording and current-passing electrodes were constructed from thin-wall capillary tubing pulled to a resistance of 1-3 Mohms and filled with 3 M KCl. […] Currents were recorded directly onto a strip chart recorder.
Using this screen allows one to test for an action directly on the calcium receptor. Oocytes expressing the calcium receptor also responded to several molecules active on intact parathyroid cells when screened as follows. […] This offers rather compelling evidence showing that these molecules act on the calcium receptor or on some other protein intimately associated with its function.

[1] = target: T2, human parathyroid cell calcium receptor (Homo sapiens, UniProt P41180); assay: Cl- current in Xenopus oocytes expressing human parathyroid cell calcium receptor; format: cell-based; settings: for effect on Cl- current: 3 to 30 μM, 0.3 mM extracellular Ca2+
T2 construct: T7 cRNA injected into Xenopus oocytes
T2 sequence (P41180 with tags, fused parts or gaps INS536PLTFVLSVLQ/Q926R/E1011Q): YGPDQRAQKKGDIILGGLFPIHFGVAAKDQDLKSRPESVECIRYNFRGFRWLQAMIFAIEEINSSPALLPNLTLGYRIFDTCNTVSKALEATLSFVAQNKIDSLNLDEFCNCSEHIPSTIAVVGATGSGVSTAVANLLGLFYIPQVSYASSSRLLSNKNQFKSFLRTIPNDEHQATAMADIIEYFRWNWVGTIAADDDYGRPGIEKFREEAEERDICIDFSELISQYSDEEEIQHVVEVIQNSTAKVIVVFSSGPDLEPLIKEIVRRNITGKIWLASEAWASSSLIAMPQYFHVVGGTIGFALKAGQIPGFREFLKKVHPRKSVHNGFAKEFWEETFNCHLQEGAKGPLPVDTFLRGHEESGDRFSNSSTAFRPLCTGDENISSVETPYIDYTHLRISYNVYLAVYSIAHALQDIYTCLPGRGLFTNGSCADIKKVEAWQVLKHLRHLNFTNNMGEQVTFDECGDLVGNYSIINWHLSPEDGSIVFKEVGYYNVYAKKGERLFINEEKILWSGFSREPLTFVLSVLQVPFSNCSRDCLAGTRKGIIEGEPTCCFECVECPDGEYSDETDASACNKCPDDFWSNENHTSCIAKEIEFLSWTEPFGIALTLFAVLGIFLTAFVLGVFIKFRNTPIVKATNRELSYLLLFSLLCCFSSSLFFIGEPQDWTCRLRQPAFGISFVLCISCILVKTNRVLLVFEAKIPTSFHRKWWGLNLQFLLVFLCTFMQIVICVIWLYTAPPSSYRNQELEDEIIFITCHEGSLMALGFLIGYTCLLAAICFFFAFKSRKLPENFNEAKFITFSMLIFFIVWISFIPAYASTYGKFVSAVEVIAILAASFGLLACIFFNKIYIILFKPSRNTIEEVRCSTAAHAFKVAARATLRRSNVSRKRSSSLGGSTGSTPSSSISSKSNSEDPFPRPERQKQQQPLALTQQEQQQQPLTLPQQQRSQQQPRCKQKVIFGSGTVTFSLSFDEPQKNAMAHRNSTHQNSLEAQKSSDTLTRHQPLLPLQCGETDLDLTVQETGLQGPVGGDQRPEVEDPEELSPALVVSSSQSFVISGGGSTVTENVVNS
Description: Representative cDNA inserts for both size classes were subcloned into the plasmid vector pBluescript SK. Linearization followed by in vitro transcription using T7 RNA polymerase produced cRNA transcripts. The cRNA transcripts were injected into Xenopus oocytes (150 ng/μl RNA; 50 nl/oocyte) for functional analysis. Following incubation periods of 2-4 days, the oocytes were assayed for the presence of functional calcium receptors. Both clone types gave rise to functional calcium receptors as assessed by the stimulation of calcium-activated chloride currents upon addition of appropriate calcium receptor agonists. […] Thus, both clones encode a functional, human parathyroid cell calcium receptor.
Xenopus oocytes were injected with pHuPCaR 5.2, the 5.2 Kb cDNA encoding a parathyroid cell calcium receptor derived from a human parathyroid cell adenoma. (See Example 27.) After two to three days, Cl^- currents were measured in the oocytes using a two-electrode voltage clamp.

calcitonin = calcitonin levels in rats; format: in vivo, rat; settings: NPS R-568 p.o.

Compound	mobilization of intracellular Ca2+ in oocytes (calcium receptor; hexacyclen 135 μM, neomycin 100 μM, NPS 382 5 mM)	effect on Cl- current (calcium receptor; listed as Neomycin B)	effect on Cl- current (calcium receptor; listed as neomycin B)	effect in water-injected oocytes (calcium receptor; listed as Neomycin B)	effect in water-injected oocytes (calcium receptor; listed as neomycin B)	effect on Cl- current [1]	response in absence of extracellular Ca2+ [1]	effect on calcitonin, oral (calcitonin)	activation of oocyte-expressed receptor [1]	effect on extracellular Ca2+ concentration-response curve [1]
NC[C@@H]1O[C@H](O[C@H]2[C@@H](O)[C@H](O[C@@H]3[C@@H](O)[C@H](N)C[C@H](N)[C@H]3O[C@H]3O[C@H](CN)[C@@H](O)[C@H](O)[C@H]3N)O[C@@H]2CO)[C@H](N)[C@@H](O)[C@@H]1O [Neomycin]	also effective	evoked oscillatory increases in the Cl^-	evokes oscillating increases in the Cl^-	failed to elicit a response in five water-injected oocytes	failed to cause any change in the current	–	–	–	–	–
NCCCNCCCCNCCCNCCCNCCCNC(=O)Cc1c[nH]c2ccccc12 [NPS 019]	–	–	–	–	–	evoked increases in the Cl^-	persisted	–	–	–
COc1cccc([C@@H](C)NCCCc2ccccc2Cl)c1 [NPS R-568, (R)-(+)-N-[3-(2-chlorophenyl)propyl]-α-methyl-3-methoxybenzylamine]	–	–	–	–	–	evoked increases in the Cl^-	abolished	increase in calcitonin	activated the oocyte-expressed receptor at about the same concentrations	shifted the concentration-response curve to the left
